Test results reported in patent US20250302792A1, “ACTIVE SUBSTANCES FOR MEDICAL USE” (inflamed pharma GmbH, priority 2022, published 2025).
Where a name gives a salt, the structure may show the parent alone. Read-outs that look alike come from different tables or passages of the source.

Assays:
[1] = Solubility in octanol, content by UV/VIS spectroscopy and pH; type: physicochemical; settings: for pH: solubility test in octanol
Protocol: Solubility tests in octanol were conducted, and the content in the organic phase was examined by UV/VIS spectroscopy, as were the pH values.

[2] = test system: influenza virus A/Puerto Rico/8/34 (IAV); type: cell-based
A. fumigatus [3] = type: cell-based, Aspergillus fumigatus
[4] = test system: influenza virus A/Puerto Rico/8/34; type: cell-based
A. fumigatus [5] = assay: Hyphae formation of A. fumigatus in a human cell-free system, DMEM with 10% FCS (FIG. 4); type: cell-based, Aspergillus fumigatus; settings: 10 h
Protocol: (A) Procedure for the treatment method: conidia of a GFP-expressing A. fumigatus strain [5*10^6 conidia/well] was sown on cover slips in 24-well plates and incubated with solvent (H2O) or with the specified concentrations of voriconazole, ProcCluster® (B-C) or procaine HCl (D-E) in DMEM with 10% FCS at 37° C., 5% CO2, for 10 h. Subsequently, the fungi were fixed (3.7% formaldehyde in PBS, 1 h, room temperature) and applied to microscope slides with fluorescent dye solution (Agilent, Santa Clara, CA, USA). (B, D) The growth of A. fumigatus was visualized via internal GFP expression. The scale of the immunofluorescence images corresponds to 100 μm. Detection of immunofluorescence and imaging and image processing were effected with an Axio Observer.Z1 microscope (Zeiss, Jena, Germany) and the Fiji V 1.52b software (github.com/fiji/fiji). (C, E) Fungus size was determined by means of the particle counter software (github.com/chko90/particle counter). Five immunofluorescence images were taken for each sample. The fungus sizes ascertained were normalized and the solvent control was set at 100%. Statistical significance was ascertained by a one-way ANOVA test with Dunnett multiple comparison test using GraphPad Prism 9.2 (Graphpad Software, Boston, USA) (p<0.05 was considered to be the level of statistical significance).

A. fumigatus [6] = type: cell-based, Aspergillus fumigatus; remark: listed apart in the source
A. fumigatus [7] = assay: Hyphae formation of GFP-expressing A. fumigatus conidia in DMEM/BA medium (FIG. 1); type: cell-based, Aspergillus fumigatus; settings: procaine HCl 0.31 or 1.25-10 mM, 10 h, 37° C.
Protocol: (A) Procedure for the treatment method: conidia of a green-fluorescence protein (GFP)-expressing A. fumigatus strain [5*10^6 conidia/well] were sown on cover slips in 24-well plates in 300 μl of DMEM/BA medium (0.2% BSA, 1 mM MgCl2 and 0.9 mM CaCl2) and, in each case supplemented with solvent (H2O), procaine HCl [0.31 (B) or 1.25 (C)—10 mM] or voriconazole [0.2 μg ml^−1], incubated at 37° C., 5% CO2, for 10 h. Subsequently, the fungi were fixed (3.7% formaldehyde in PBS, 30 min, room temperature) and applied to microscope slides with the aid of fluorescent dye solution (Agilent, Santa Clara, CA, USA). The hyphae size was analyzed by (B) Axio Observer.Z1 microscope (Zeiss, Jena, Germany) and the Fiji V 1.52b software (github.com/fiji/fiji). (C) Fungus size was calculated with the particle counter software (github.com/chko90/particle counter). The data are a representation of four experiments (B) or the mean+SD of four experiments with two technical samples in each case (C). Statistical significance was calculated with GraphPad Prism 9.2 (Graphpad Software, Boston, USA) using the one-way ANOVA Dunnett multiple comparison test. P values are indicated by asterisks *p<0.05.

| Compound | membrane permeability concluded from solubility in the organic phase ([1]; octanol) | Content (solubility in octanol, content in the organic phase) ([1]; octanol, UV/VIS spectroscopy) | pH [1] | Content (solubility in octanol, content in the organic phase) [1] | virus load [2] | Content (solubility in octanol, content in the organic phase) ([1]; octanol, UV/VIS spectroscopy, hydrochloride) | Content (solubility in octanol, content in the organic phase) ([1]; octanol, UV/VIS spectroscopy, listed as Procaine HCl, hydrochloride) | pH ([1]; hydrochloride) | pathogenic load of A. fumigatus (A. fumigatus [3]) | pathogenic load of influenza viruses [4] | hyphae formation (A. fumigatus [5]) | hyphae formation (A. fumigatus [6]) | hyphae formation by A. fumigatus (A. fumigatus [7]) |
| --- | --- | --- | --- | --- | --- | --- | --- | --- | --- | --- | --- | --- | --- |
| CCN(CC)CCOC(=O)c1ccc(N)cc1.O=C(O)O [Carbonic acid adduct of procaine] | membrane-permeable | 74% | 7.5 | – | – | – | – | – | – | – | – | – | – |
| CCN(CC)CCOC(=O)c1ccc(N)cc1 [Procaine, 2-(N,N-diethylamino)ethyl 4-aminobenzoate] | – | – | 8.5 | completely dissolved (100%) | – | – | – | – | – | – | – | – | – |
| CCN(CC)CCOC(=O)c1ccc(N)cc1 [Procaine hydrochloride, procaine hydrochloride] | – | – | – | – | reduced virus load | 8% | 8% | 4.5 | reduced | reduced | reduced hyphae formation | reduced | reduces hyphae formation |
